The test system of data set [1] is beagle dogs. The experiment in a line: Repeated oral administration toxicity tests of TKS159 in beagle dogs (4, 13 and 52 weeks). In kind it is in vivo. The method, then:
Separately, beagle dogs (female and male) were divided into 4 groups consisting of 6, 4, 4 and 6 dogs and, among them, to 3 groups were repeatedly administered orally TKS 159 at a dose of 2.5, 6.0 and 15.0 mg/kg, and to a control group was repeatedly administered orally an excipient, for 13 weeks, and observation of the general status and various tests were performed. Further, regarding a control group and a case of a part of a 15.0 mg/kg administration group, after a repeated administration period for 13 weeks, a recovery test of no administration of a drug was performed for 4 weeks, and then the same test was performed. […] Separately, beagle dogs (female and male) were divided into 4 groups containing 5, 3, 3 and 5 dogs and, among them, to 3 groups was repeatedly administered orally TKS159 at a dose of 0.25, 0.75 and 2.25 mg/kg, to a control group was repeatedly administered an excipient orally, for 52 weeks, and observation of the general status and various tests were performed. Further, regarding a control group and a case of a part of a 2.25 mg/kg administration group, after a repeated administration period for 52 weeks, a recovery test of no administration of a drug was performed for 4 weeks, and then the same test was performed.

The target of a further data set is T1, serotonin receptor 4 (Cavia porcellus, UniProt O70528).
T1 construct: centrifugation and suspension were repeated to prepare a serotonin receptor 4 sample; from tissue; host or cells: corpus striatum of Hartley male guinea pig (membrane homogenate)
T1 sequence (O70528 whole entry): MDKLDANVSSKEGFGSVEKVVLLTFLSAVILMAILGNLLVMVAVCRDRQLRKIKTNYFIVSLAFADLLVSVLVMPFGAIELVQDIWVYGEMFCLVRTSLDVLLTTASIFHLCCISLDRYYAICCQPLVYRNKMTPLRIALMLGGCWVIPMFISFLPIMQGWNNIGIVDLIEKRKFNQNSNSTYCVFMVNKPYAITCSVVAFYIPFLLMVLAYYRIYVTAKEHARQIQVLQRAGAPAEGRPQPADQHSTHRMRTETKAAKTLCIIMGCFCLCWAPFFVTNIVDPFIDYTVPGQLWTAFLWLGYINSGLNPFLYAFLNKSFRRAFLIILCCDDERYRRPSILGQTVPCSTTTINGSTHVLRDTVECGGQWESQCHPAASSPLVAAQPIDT
Kind of data set: Binding affinity for serotonin receptor 4 ([3H]-GR113808 displacement). Particulars: for IC50: guinea pig corpus striatum receptor sample, 0.1 nM [3H]-GR113808. Details: species or system guinea pig. As for the experimental part: Corpus striatum extracted from a Hartley male guinea pig was homogenized in a 50 mM HEPES-NaOH buffer (pH 7.4), and centrifugation and suspension were repeated to prepare a serotonin receptor 4 sample. The receptor sample was reacted with a solution containing a 0.1 nM radioactive ligand of [^3H]-GR113808 and the specimen drug obtained in Example 9 at a prescribed concentration. Then, the solution was filtered by suction using a multifilter MF-12G (glass filter (provided with Whatman GFIC)), and radioactivity of the filter was measured using a scintillation counter (LS6500 Beckman), so that affinity of the specimen drug for a serotonin receptor 4 was measured. Separately, the same procedure was also performed regarding TKS159 hydrochloride, and the affinity was compared.

In the next data set the target is T2, dopamine D2 receptor (Rattus norvegicus, UniProt P61169).
T2 construct: centrifugation and suspension were repeated to prepare a dopamine D2 receptor sample; from tissue; host or cells: corpus striatum of Wistar male rat (membrane homogenate)
T2 sequence (P61169 whole entry): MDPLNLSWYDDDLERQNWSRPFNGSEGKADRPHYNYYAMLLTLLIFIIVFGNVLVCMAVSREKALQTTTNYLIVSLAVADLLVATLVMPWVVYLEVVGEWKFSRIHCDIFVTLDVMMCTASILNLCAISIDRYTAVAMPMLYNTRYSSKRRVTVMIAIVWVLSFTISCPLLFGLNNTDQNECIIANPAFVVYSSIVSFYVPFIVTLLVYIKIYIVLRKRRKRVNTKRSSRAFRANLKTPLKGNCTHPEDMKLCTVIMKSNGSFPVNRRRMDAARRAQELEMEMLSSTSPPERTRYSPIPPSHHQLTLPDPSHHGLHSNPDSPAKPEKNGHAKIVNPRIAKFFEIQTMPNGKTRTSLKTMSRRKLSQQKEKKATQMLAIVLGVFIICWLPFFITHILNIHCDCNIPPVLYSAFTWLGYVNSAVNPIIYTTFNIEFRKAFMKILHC
Kind of data set: Binding affinity for dopamine D2 receptor ([3H]-spiperone displacement). Particulars: for IC50: Wistar rat corpus striatum receptor sample, 0.25 nM [3H]-spiperone. The method, then: Corpus striatum extracted from a Wistar male rat was homogenized in a 50 mM Tris-HCl buffer (pH 7.7), and centrifugation and suspension were repeated to prepare a dopamine D2 receptor sample. The receptor sample was reacted with a solution containing a 0.25 nM radioactive ligand of [^3H]-spiperone and the specimen drug obtained in Example 9 at a prescribed concentration. Then, the solution was filtered by suction using a multifilter MF-12G (glass filter (provided with Whatman GF/C)), and radioactivity of the filter was measured using a scintillation counter (LS6500 Beckman), so that affinity of the specimen drug for a dopamine D2 receptor was measured. Separately, the same procedure was also performed regarding TKS159 hydrochloride, and the affinity was compared.

Data set [2] deals with esophagus sample extracted from a rat. The experiment in a line: Relaxation reaction in rat-extracted esophagus muscularis mucosae sample contracted with carbachol. To be noted: for EC50: Wistar rat esophagus muscularis mucosae, 3x10^-6 M carbachol, 1 μM methysergide, ketanserin and granisetron present. As for the experimental part:
Regarding the drug obtained in Example 9, a degree of action of promoting the movement of the digestive tract was measured using an esophagus sample extracted from a rat.
An esophagus in a chest cavity was extracted from a Wistar male rat, and muscularis propria sample containing longitudinal muscle and circular muscle was removed to prepare a muscularis mucosae sample having a length of about 2 cm. The sample was immersed in a nutrient solution (containing NaCl 118.5, KCl 4.7, CaCl2 1.3, MgSO4 0.6, NaHCO3 25.0, KH2PO4 1.2, and glucose 11.1 (unit mM)), and constriction of the sample and stability of the constriction were confirmed at 32°C using 3x10 ^-6M carbachol while a 95% 02/5% Co2 mixed gas was flown, each 1 μM of methysergide, ketanserin and granisetron were added, the drug obtained in Example 9 was accumulatively applied at a common ratio of 3 after 30 minutes, and a degree of relaxation was isotonically (stationary tension; about 0.5 g) measured via a transducer. Separately, the same procedure was also performed regarding TKS159 hydrochloride, and an intensity of the action was compared.

The test system of another data set is ddy male mouse. Kind of data set: Acute toxicity in mouse, oral and intravenous administration. In kind it is in vivo. As for the experimental part:
Using a ddy male mouse, the drug obtained in Example 9 and TKS159 were suspended in 0.5% methylcellulose for oral administration, and were dissolved in a physiological saline for intravenous administration. This was administered by a forced oral administration method and an intravenous administration method using a probe, and acute toxicity was observed.

The test system of data set [3] is beagle dogs. The experiment in a line: 4-week repeated oral administration to beagle dogs, necropsy and pathohistological test. In kind it is in vivo. To be noted: beagle dog, oral 100 mg/kg once a day for 4 weeks. As for the experimental part:
Using three beagle dogs as a test animal, 4-amino-5-chloro-2-methoxy-N-[(2S,4S)-2-hydroxymethyl-4-pyrrolidinyl]benzamide monohydrochloride obtained in Example 9 was repeatedly administered orally at a dose of 100 mg/kg once a day for 4 weeks. Thereafter, the animals were sacrificed by exsanguination from carotid artery under anesthesia, and the brain, aorta, heart, lung, and liver were extracted. These organs were examined with naked eyes, fixed with a 0.1% phosphate-buffered 10% formalin solution, and stored. Each organ was embedded in paraffin, and sliced to prepare a hematoxine orange-stained sample. Pathohistological test on the sections was performed using a light microscope.

Another data set has as its system Sprague-Dawley male rats. The experiment in a line: 28-day repeated oral administration to rats, necropsy and pathohistological test. In kind it is in vivo. Particulars: rat, oral 300, 1000 or 2000 mg/kg once a day for 28 days. As for the experimental part:
Five Sprague-Dawley male rats, 4 week age, weighing each 160.3 to 169.5 g, were reared for 8 days for quarantine and training were handled as one group, and they were grouped into four groups of a control group, a 300 mg/kg administration, a 1000 mg/kg administration, and a 2000 mg/kg administration. 4-Amino-5-chloro-2-methoxy-N-[(2S,4S)-2-hydroxymethyl-4-pyrrolidinyl] benzamide monohydrochloride obtained in Example 9 was ground with a mortar, the powder was added so that the compound was contained at 300 mg, 1000 mg or 2000 mg in 10 ml of a 0.5% aqueous methylcellulose solution (manufactured by Wako Pure Chemical Industries, Ltd.; prepared using Japanese Pharmacopoeia injectable water), and the solution was stirred to prepare an administration specimen. Administration specimens for 7 days were prepared at one time, once per week, stored in a refrigerator, and used. One-time dose was defined to be 10 ml/kg, and the specimen was forcibly administered orally at 9 o'clock to 12 o'clock for 28 days once a day using a rat stomach tube. Only a 0.5% aqueous methylcellulose solution was administered at 10 ml/kg to a control group.
During training and drug administration period, a solid feed (CE-2 manufactured by CLEA Japan Inc.) and tap water were freely given.

[4] abbreviates: beagle dogs, 13 weeks, 15.0 mg/kg group.
Setting [5] is: beagle dogs, 52 weeks, 2.25 mg/kg group.
The mark [6] stands for this setting: male beagle dogs, 4 weeks, 100 mg/kg group.

Structures can show the parent of a compound that is named as a salt.

On to `CCN1C[C@@H](NC(=O)c2cc(Cl)c(N)cc2OC)C[C@H]1CO` [TKS159, 4-Amino-5-chloro-2-methoxy-N-[(2S,4S)-1-ethyl-2-hydroxymethyl-4-pyrrolidinyl]benzamide], for which, in the data set on beagle dogs [1] (setting [4]), the “findings in other one case” value is “necrosis of an artery septum and surrounding cell infiltration were recognized”; the “findings in two cases” value is “arteritis was recognized”. In the data set with beagle dogs [1] (setting [5]), the arteritis findings result is “arteritis was observed in thighbone marrow and mediastinal lymph node in one case among male 5 cases”; the malacia findings entry is “malacia was seen in piriform lobe and hippocampus in other one case”. Also, in the data set with beagle dogs [1] (setting [6]), the “findings in death case” value is “thrombus formation was recognized in a lung artery and a heart coronary artery, and slight bleeding was recognized in a cavity surrounding a blood vessel in a cerebral parenchyma”; the “findings in survival case” value is “big thrombus formation was recognized in a left ventricle, and thrombus formation was recognized in a kidney arcuate artery and an interlobar artery”.
Regarding `CCN1CC(NC(=O)c2cc(Cl)c(N)cc2OC)CC1CO` (stereo not drawn) [TKS159 hydrochloride], the IC50 turned out to be 450 nM on serotonin receptor 4 and 3800 nM on dopamine D2 receptor. Also, in data set [2], the EC50 was determined as 1100 nM. Also, the Survival entry with ddy male mouse (intravenous administration, 132 mg/kg) is listed as “No survival among 6”; in the data set with ddy male mouse (oral administration, 1080 mg/kg) it was “No survival among 2”.
Turning to `COc1cc(N)c(Cl)cc1C(=O)N[C@@H]1CN[C@H](CO)C1.Cl` [Example 9, 4-amino-5-chloro-2-methoxy-N-[(2S,4S)-2-hydroxymethyl-4-pyrrolidinyl]benzamide monohydrochloride], the “affinity for a serotonin receptor 4 as compared with TK5159 hydrochloride” value at serotonin receptor 4 (FIG. 1) is “stronger”. The IC50 was 250 nM on serotonin receptor 4 and 34000 nM at dopamine D2 receptor. In addition, the “affinity for a dopamine D2 receptor as compared with TKS159 hydrochloride” value at dopamine D2 receptor (FIG. 2) is listed as “weaker”. For the same molecule, the “relaxing action as compared with TKS159 hydrochloride” value in data set [2] (FIG. 3) is on record as “stronger”. Besides, the EC50 in data set [2] stood at 700 nM. The pathohistological test entry in the data set with beagle dogs [3] was “encephalomalacia, arteritis and thrombus formation were not recognized”; in the data set on Sprague-Dawley male rats, “encephalomalacia, arteritis and thrombus formation were not recognized”. For the same molecule, in the data set with beagle dogs [3] (brain, aorta, heart, lung, liver), the “organs examined with naked eyes” value was “Abnormality was not seen in any organ”. For the same molecule, the “organs observed with naked eyes” value in the data set on Sprague-Dawley male rats is given as “Abnormality was not seen with naked eyes in any organ”.

A word on the IC50: it is the concentration needed to halve the response being measured. Read a high IC50 as weaker potency in that assay. By EC50 is commonly meant the concentration needed to bring the measured effect to its halfway point. High values mean weaker potency, low ones greater potency.

The values above are taken from patent US7485665B2, “Medicinal composition” (Nagase Chemtex Corporation, priority 2002, dated 2009).
